According to patent US20060257340A1, “Formulation for skin-lightening agents” (priority 2003, published 2006):
“Also recorded” adds a separate entry of the source. Marks after values point to notes of the source that are not given here.

Legend:
[1] = system: skin pigmentation of Yucatan swine; assay: Reversibility of depigmentation (repigmentation) after treatment discontinuation; format: in vivo; conditions: 6 weeks after discontinuation following 12 weeks of topical treatment; 1% 4-cyclopentylresorcinol, 2% 4-cyclohexylresorcinol in HG/DMI/PG/EtOH (5/15/40/40)
Description: Each spot was topically treated with 20 μl of test solution applied twice daily, five days per week. This amounts to the same dose of active agent. Solutions were administered by pipetting the exact volume to the designated area with a micropipette and then spreading the solution. Each spot or test site on the animal's skin was graded 3 times a week on a scale of 0 to 4 for pigment change, erythema and scaling. Treatments were continued until pigmentation was reduced to a grade 1 level (marked uniform decrease in pigmentation) or for up to 12 weeks. Pigmentation was monitored for 6 weeks after discontinuation of treatment following 12 weeks of topical treatment with 1% 4-cyclopentylresorcinol and 2% 4-cyclohexylresorcinol in HG/DMI/PG/EtOH (5/15/40/40).

[2] = system: Yucatan swine skin; conditions: in vivo
Description: Seven sites measuring approximately 3 cm×3 cm were marked on each side of the animal's spine, between the shoulder blade and hipbone. The sites were far enough apart so that there was no cross-over. Multiple treatments were performed on the back of each animal. Each animal in the experiment received the same treatments. Each spot was topically treated with 20 μl of test solution applied twice daily, five days per week. This amounts to the same dose of active agent. Solutions were administered by pipetting the exact volume to the designated area with a micropipette and then spreading the solution. Each spot or test site on the animal's skin was graded 3 times a week on a scale of 0 to 4 for pigment change, erythema and scaling. Treatments were continued until pigmentation was reduced to a grade 1 level (marked uniform decrease in pigmentation) or for up to 12 weeks.

[3] = system: skin pigmentation of Yucatan swine; assay: Depigmenting effect of topical application on dark-skinned Yucatan swine (pigment grade); format: in vivo; conditions: for Mean pigment Grade +/− SD (Week 12): topical 20 μl twice daily, five days per week; for Mean pigment Grade +/− SD (Week 12) / mean pigment grade +/− SD: scale 0 to 4, 4 = normal skin color; for mean pigment grade +/− SD: collated experiments; for effect of HG/PG/DMI/EtOH vehicle on depigmenting action: HG/PG/DMI/EtOH with or without 2% (wt/wt) IPM, compared with PG/EtOH
Description: The following nonlimiting examples further illustrate certain preferred embodiments of the present invention. The formulations were tested experimentally on Yucatan swine with dark skin. The Yucatan pigskin shares many physiologic and morphologic characteristics with human skin. For example, as described in U.S. Pat. No. 5,470,567, the thickness and general morphology of epidermis and dermis, tritiated thymidine labeling pattern and index of epidermal cells, epidermal cell turnover time, as well as size, orientation, and distribution of vessels in skin are similar to that in humans. Varying concentrations of 4-cyclopentylresorcinol and 4-cyclohexylresorcinol were administered to the back of Yucatan swine using various carriers. Yucatan swine with dark skin were used in this study. Swine were obtained from Charles River Laboratories, Windham, Me., and Sinclair Laboratories, MO. Seven sites measuring approximately 3 cm×3 cm were marked on each side of the animal's spine, between the shoulder blade and hipbone. The sites were far enough apart so that there was no cross-over. Multiple treatments were performed on the back of each animal. Each animal in the experiment received the same treatments. Each spot was topically treated with 20 μl of test solution applied twice daily, five days per week. This amounts to the same dose of active agent. Solutions were administered by pipetting the exact volume to the designated area with a micropipette and then spreading the solution. Each spot or test site on the animal's skin was graded 3 times a week on a scale of 0 to 4 for pigment change, erythema and scaling. Treatments were continued until pigmentation was reduced to a grade 1 level (marked uniform decrease in pigmentation) or for up to 12 weeks. Results were analyzed using different types of statistical analysis, ANOVA, Kruskal-Wallis test and Dunnett's multiple comparison, as indicated below. ANOVA is a statistical test that assumes sampled data is from populations that follow a Gaussian bell-shaped distribution and which works well, especially with large numbers, even if the distribution is only approximately Gaussian. The Kruskal-Wallis test is a nonparametric test that compares three or more unpaired groups. The Dunnett's test is a procedure for comparing each experimental mean with the control mean. For each graph presented, it is indicated which statistical tests were performed.

[4] = 2% in HG/PG/DMI/EtOH (5/40/15/40)

SMILES | repigmentation after discontinuation of treatment [1] | irritation [2] | Mean pigment Grade +/− SD (Week 12) ([3]; 2% in DMI/HG/PG/EtOH, 0 = complete depigmentation) | mean pigment grade +/− SD [3, 4] | mean pigment grade +/− SD ([3]; 2% in HG/PG/DMI/EtOH + 2% IPM) | mean pigment grade +/− SD ([3]; 2% in PG/EtOH (3/7)) | mean pigment grade +/− SD ([3]; 5% in PG/EtOH (5/5)) | effect of HG/PG/DMI/EtOH vehicle on depigmenting action [3] | pigmentation versus the same agent in PG/EtOH vehicle ([3]; 1% and 2% in HG/PG/DMI/EtOH compared with PG/EtOH) | pigmentation versus vehicle control ([3]; 1% and 2% in HG/PG/DMI/EtOH, Kruskal-Wallis test and Dunnett's multiple comparison) | Mean pigment Grade +/− SD (Week 12) ([3]; 1% in DMI/HG/PG/EtOH, 0 = complete depigmentation) | mean pigment grade +/− SD ([3]; 1% in HG/PG/DMI/EtOH (5/40/15/40)) | mean pigment grade +/− SD ([3]; 1% in HG/PG/DMI/EtOH + 2% IPM) | mean pigment grade +/− SD ([3]; 1% in PG/EtOH (3/7), 0 = complete depigmentation)
Oc1ccc(C2CCCCC2)c(O)c1 [4-cyclohexylresorcinol] | signs of gradual repigmentation | No irritation was apparent | 3 +/− 0* | 2.8 +/− 0.6* | 2.4 +/− 1.1* | 3.0 +/− 0.8 | 3.0 +/− 0* | improved the depigmenting action; also recorded: improved the depigmentation efficacy |  |  |  |  |  | 
Oc1ccc(C2CCCC2)c(O)c1 [4-cyclopentylresorcinol] | signs of gradual repigmentation | No irritation was apparent |  | 2.0 +/− 0.7* | 1.4 +/− 0.9* | 2.4 +/− 0.9* |  | improved the depigmentation efficacy | not statistically different | statistically different from vehicle | 2.8 +/− 0.4* | 2.8 +/−0.6* | 2.0 +/− 1.2* | 3.3 +/− 0.7
